# Source: patent publication US20250339409A1, “USES OF PAN BET INHIBITORS” (VYNE THERAPEUTICS INC., priority 2021, published 2025)
# Values joined by “and” are separate entries in the source; they are usually repeats but may differ in a detail not shown here. Identical values can stand only once. Marks after values point to notes of the source that are not given here.
# Test system: anti collagen antibodies induced arthritis (ACAIA)
# Experiment: Anti collagen antibodies induced arthritis (ACAIA) in mice, intra-articular treatment: paw thickness, arthritis clinical score, body weight;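 note: mouse arthritis induced by IV anti-collagen mAb on day 0 plus IP LPS on day 4, with body weight, caliper paw thickness and 0-4 paw score tracked against a day 0 baseline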
smiles,measurement,setting,value
Cn1cc(-c2cccc(O)c2Oc2ccccc2)c2cc[nH]c2c1=O [BETi1],Paw thickness of treated leg (Avg.),"0.1 mg/kg IA (Group 4), Day 7",2.82 mm
same,Paw thickness of untreated leg (Avg.),"0.1 mg/kg IA (Group 4), Day 7",2.87 mm
same,Percent change of weight per day (Av),"0.1 mg/kg IA (Group 4), Day 7",88.48%
same,"Δ clinical score untreated -treated, Avg. Delta","0.1 mg/kg IA (Group 4), Day 7",0.00 points
same,Clinical score of treated leg (Avg.),"0.1 mg/kg IA (Group 4), Day 8",2.29 points
same,Paw thickness Avg. Delta untreated -treated,"0.1 mg/kg IA (Group 4), Day 8",−0.05 mm
same,Paw thickness of treated leg (Avg.),"0.1 mg/kg IA (Group 4), Day 8",2.86 mm
same,Paw thickness of untreated leg (Avg.),"0.1 mg/kg IA (Group 4), Day 8",2.81 mm
same,Percent change of weight per day (Av),"0.1 mg/kg IA (Group 4), Day 8",87.72%
same,"Δ clinical score untreated -treated, Avg. Delta","0.1 mg/kg IA (Group 4), Day 8",0.00 points
same,Clinical score of treated leg (Avg.),"0.1 mg/kg IA (Group 4), Day 10",2.43 points
same,Paw thickness Avg. Delta untreated -treated,"0.1 mg/kg IA (Group 4), Day 10",0.05 mm
same,Paw thickness of treated leg (Avg.),"0.1 mg/kg IA (Group 4), Day 10",2.94 mm
same,Paw thickness of untreated leg (Avg.),"0.1 mg/kg IA (Group 4), Day 10",2.99 mm
same,Percent change of weight per day (Av),"0.1 mg/kg IA (Group 4), Day 10",88.75%
same,"Δ clinical score untreated -treated, Avg. Delta","0.1 mg/kg IA (Group 4), Day 10",0.14 points
same,Clinical score of treated leg (Avg.),"0.1 mg/kg IA (Group 4), Day 12",2.57 points
same,Paw thickness Avg. Delta untreated -treated,"0.1 mg/kg IA (Group 4), Day 12",−0.05 mm
same,Paw thickness of treated leg (Avg.),"0.1 mg/kg IA (Group 4), Day 12",3.10 mm
same,Paw thickness of untreated leg (Avg.),"0.1 mg/kg IA (Group 4), Day 12",3.05 mm
same,Percent change of weight per day (Av),"0.1 mg/kg IA (Group 4), Day 12",93.51%
same,"Δ clinical score untreated -treated, Avg. Delta","0.1 mg/kg IA (Group 4), Day 12",0.43 points
same,Clinical score of treated leg (Avg.),"1 mg/kg IA (Group 3), Baseline",0.00 points
same,Paw thickness Avg. Delta untreated -treated,"1 mg/kg IA (Group 3), Baseline",0.04 mm
same,Paw thickness of treated leg (Avg.),"1 mg/kg IA (Group 3), Baseline",2.05 mm
same,Paw thickness of untreated leg (Avg.),"1 mg/kg IA (Group 3), Baseline",2.09 mm
same,Percent change of weight per day (Av),"1 mg/kg IA (Group 3), Baseline",100.00%
same,Percent change of weight per day (individual animal),"1 mg/kg IA (Group 3), Baseline",100%
same,"Δ clinical score untreated -treated, Avg. Delta","1 mg/kg IA (Group 3), Baseline",0.00 points
same,Clinical score of treated leg (Avg.),"1 mg/kg IA (Group 3), Day 3",0.00 points
same,Paw thickness Avg. Delta untreated -treated,"1 mg/kg IA (Group 3), Day 3",0.02 mm
same,Paw thickness of treated leg (Avg.),"1 mg/kg IA (Group 3), Day 3",2.11 mm
same,Paw thickness of untreated leg (Avg.),"1 mg/kg IA (Group 3), Day 3",2.13 mm
same,Percent change of weight per day (Av),"1 mg/kg IA (Group 3), Day 3",99.97%
same,Percent change of weight per day (individual animal),"1 mg/kg IA (Group 3), Day 3",100.9804% and 98.22% and 102.4631% and 98.49% and 97.67%
same,"Δ clinical score untreated -treated, Avg. Delta","1 mg/kg IA (Group 3), Day 3",0.00 points
same,Clinical score of treated leg (Avg.),"1 mg/kg IA (Group 3), Day 4",0.00 points
same,Paw thickness Avg. Delta untreated -treated,"1 mg/kg IA (Group 3), Day 4",−0.03 mm
same,Paw thickness of treated leg (Avg.),"1 mg/kg IA (Group 3), Day 4",2.22 mm
same,Paw thickness of untreated leg (Avg.),"1 mg/kg IA (Group 3), Day 4",2.19 mm
same,Percent change of weight per day (Av),"1 mg/kg IA (Group 3), Day 4",101.40%
same,Percent change of weight per day (individual animal),"1 mg/kg IA (Group 3), Day 4",101.9608% and 100% (2×) and 103.9409% and 100.9302%
same,"Δ clinical score untreated -treated, Avg. Delta","1 mg/kg IA (Group 3), Day 4",0.00 points
same,Clinical score of treated leg (Avg.),"1 mg/kg IA (Group 3), Day 5",0.00 points
same,Paw thickness Avg. Delta untreated -treated,"1 mg/kg IA (Group 3), Day 5",0.04 mm
same,Paw thickness of treated leg (Avg.),"1 mg/kg IA (Group 3), Day 5",2.13 mm
same,Paw thickness of untreated leg (Avg.),"1 mg/kg IA (Group 3), Day 5",2.17 mm
same,Percent change of weight per day (Av),"1 mg/kg IA (Group 3), Day 5",91.68%
same,Percent change of weight per day (individual animal),"1 mg/kg IA (Group 3), Day 5",93.63% and 89.78% and 94.58% and 88.94% and 89.3%
same,"Δ clinical score untreated -treated, Avg. Delta","1 mg/kg IA (Group 3), Day 5",0.00 points
same,Clinical score of treated leg (Avg.),"1 mg/kg IA (Group 3), Day 6",0.14 points
same,Paw thickness Avg. Delta untreated -treated,"1 mg/kg IA (Group 3), Day 6",0.23* mm
same,Paw thickness of treated leg (Avg.),"1 mg/kg IA (Group 3), Day 6",2.27* mm
same,Paw thickness of untreated leg (Avg.),"1 mg/kg IA (Group 3), Day 6",2.50 mm
same,Percent change of weight per day (Av),"1 mg/kg IA (Group 3), Day 6",89.39%
same,Percent change of weight per day (individual animal),"1 mg/kg IA (Group 3), Day 6",91.67% and 82.67% and 92.61% and 90.45% and 89.77%
same,"Δ clinical score untreated -treated, Avg. Delta","1 mg/kg IA (Group 3), Day 6",0.57 points
same,Clinical score of treated leg (Avg.),"1 mg/kg IA (Group 3), Day 7",0.71 points
same,Paw thickness Avg. Delta untreated -treated,"1 mg/kg IA (Group 3), Day 7",0.56* mm
same,Paw thickness of treated leg (Avg.),"1 mg/kg IA (Group 3), Day 7",2.25** mm
same,Paw thickness of untreated leg (Avg.),"1 mg/kg IA (Group 3), Day 7",2.80 mm
same,Percent change of weight per day (Av),"1 mg/kg IA (Group 3), Day 7",89.93%
same,Percent change of weight per day (individual animal),"1 mg/kg IA (Group 3), Day 7",89.71% and 84% and 93.1% and 89.45% and 90.23%
same,"Δ clinical score untreated -treated, Avg. Delta","1 mg/kg IA (Group 3), Day 7",0.71 points
same,Clinical score of treated leg (Avg.),"1 mg/kg IA (Group 3), Day 8",1.00 points
same,Paw thickness Avg. Delta untreated -treated,"1 mg/kg IA (Group 3), Day 8",0.56 mm
same,Paw thickness of treated leg (Avg.),"1 mg/kg IA (Group 3), Day 8",2.36* mm
same,Paw thickness of untreated leg (Avg.),"1 mg/kg IA (Group 3), Day 8",2.92 mm
same,Percent change of weight per day (Av),"1 mg/kg IA (Group 3), Day 8",91.22%
same,Percent change of weight per day (individual animal),"1 mg/kg IA (Group 3), Day 8",90.69% and 88% and 92.61% and 89.95%
same,"Δ clinical score untreated -treated, Avg. Delta","1 mg/kg IA (Group 3), Day 8",1.43 points
same,Clinical score of treated leg (Avg.),"1 mg/kg IA (Group 3), Day 10",0.71 points
same,Paw thickness Avg. Delta untreated -treated,"1 mg/kg IA (Group 3), Day 10",0.74 mm
same,Paw thickness of treated leg (Avg.),"1 mg/kg IA (Group 3), Day 10",2.21* mm
same,Paw thickness of untreated leg (Avg.),"1 mg/kg IA (Group 3), Day 10",2.95 mm
same,Percent change of weight per day (Av),"1 mg/kg IA (Group 3), Day 10",93.11%
same,Percent change of weight per day (individual animal),"1 mg/kg IA (Group 3), Day 10",92.16% and 94.67% and 93.6% and 93.47%
same,"Δ clinical score untreated -treated, Avg. Delta","1 mg/kg IA (Group 3), Day 10",1.29 points
same,Clinical score of treated leg (Avg.),"1 mg/kg IA (Group 3), Day 12",0.57 points
same,Paw thickness Avg. Delta untreated -treated,"1 mg/kg IA (Group 3), Day 12",0.80 mm
same,Paw thickness of treated leg (Avg.),"1 mg/kg IA (Group 3), Day 12",2.18 mm
same,Paw thickness of untreated leg (Avg.),"1 mg/kg IA (Group 3), Day 12",2.98 mm
same,Percent change of weight per day (Av),"1 mg/kg IA (Group 3), Day 12",97.09* percent
same,Percent change of weight per day (individual animal),"1 mg/kg IA (Group 3), Day 12",95.1% and 100% and 98.03% and 96.98% and 93.49%
same,"Δ clinical score untreated -treated, Avg. Delta","1 mg/kg IA (Group 3), Day 12",1.86 points
same,"reduction of arthritis score, treated vs untreated paw","1 mg/kg IA, day 12",76.5%
same,"reduction of paw thickness, treated vs untreated paw","1 mg/kg IA, day 12",26.8%
